Like-named read-outs stand apart in the source and are kept apart here.
Assays:
Type in all cases: cell-based
[1] = target: T1, recombinant human NaV1.8 stably transfected HEK cells (Homo sapiens, UniProt Q9Y5Y9); assay: Compound profiling on NaV1.8, human NaV1.8 cell line, SyncroPatch384PE automated patch clamp assay (Example 115, third set of compounds, Table 27); conditions: human NaV1.8 HEK cells, Table 27 (third set of compounds)
T1 construct: expressed in transfected cells; host or cells: HEK cells, stably transfected
Outline: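 HEK cells, cultured at 30 °C the day before, recorded by automated whole-cell patch clamp (CsF intracellular, 140 mM Na+ external), holding −120 mV. 10-point curves at 10–0.0002 µM (or 1–0.00002 µM), 5 min exposure; IC50 for resting (P1) and inactivated-state block (P2, after 10 s at −40 mV), normalized to 150 µM tetracaine and 0.1% DMSO.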

human NaV1.8 [2] = target: T2, human NaV1.8 (Homo sapiens, UniProt Q9Y5Y9); assay: Human NaV1.8 cell line SyncroPatch384PE automated patch clamp assay; parameters: expressed in transfected cells; host or cells: HEK cells, stably transfected; conditions: resting state block (P1 measurement), recombinant human NaV1.8 cells
Protocol: Compound Profiling on NaV1.8—Human NaV1.8 Cell Line—SyncroPatch384PE Assay
Compounds were tested on recombinant human NaV1.8 stably transfected HELK cells using the SyncroPatch384PE system, an automated patch clamp device. Cells were cultured at 37° C./5% CO2 in DMEM medium supplemented with GlutaMAX I, NEAA 1%, FBS 10% and seeded in T175 flasks. Cells were cultured at 30° C. one day prior to recording sodium currents. On the day of the recordings, cells were detached with 0.05% Trypsin-EDTA, resuspended in serum free DMEM medium and placed into the SyncroPatch384PE 6° C. pre-cooled cell hotel and shaken at 200 rpm. Intracellular solution (IC) contained, in mM: 10, CsCl; 110, CsF; 20, EGTA; 10, HEPES. Extracellular solution (EC) contained, in mM: 140, NaCl; 4, KCl; 5, Glucose; 10, HEPES; 2, CaCl2; 1, MgCl2. Washing solution contained, in mM: 40, NMDG; 100, NaCl; 4, KCl; 10, Glucose; 10, HEPES; 5, CaCl2; 1, MgCl2.
Compounds were tested in quadruplicates in 0.1% DMSO and 0.030% Pluronic Acid. Compounds were diluted 1:3.33 in EC solution to create a 10-point concentration response curve, spanning a final concentration range from 10-0.0002 μM in the assay plate. Compounds with low nM potency were retested using a lower concentration range (1-0.00002 μM). Each plate contained tetracaine and another tool compound as positive controls. Up to 7 compounds were tested on one plate. 150 μM tetracaine and 0.1% DMSO were used as high and low controls, respectively.
Whole cell patch clamp recordings were conducted according to Nanion's standard procedure for SyncroPatch384PE®. Cells were held at a holding potential of −120 mV. A depolarization step to 10 mV for 30 ms was applied (P1 measurement), followed by a hyperpolarization step to −100 mV for 100 ms. An inactivation step at −40 mV for 10 sec was applied before stepping to −100 mV for 20 ms, followed by a step to 10 mV for 30 ms (P2 measurement) and then back to −100 mV for 30 ms. Sweep interval was 15 sec with a sampling rate of 10 kHz. Following establishment of the whole-cell configuration in EC, two washing steps with reference buffer were performed to stabilize the baseline. Compounds were then applied by the SynchroPatch into each well and the current was recorded for five minutes in EC, followed by application of tetracaine to achieve full block at the end of the experiment. The potency of the compounds was assessed on two read-outs, resting state block (P1 measurement) or inactivated state block (P2 measurement) to obtain IC50 values. Values were normalized to high (tetracaine) and low (DMSO) controls.

human NaV1.8 [3] = target: T2, human NaV1.8; assay: Activity of representative NaV1.8 inhibitors, determined using one or more of the methods of Example 122 (method not specified); parameters: expressed in transfected cells; host or cells: HEK293 / HEK-293, stably expressing; conditions: inhibition of the Nav1.8 channel; one or more of fluorescence, PatchXpress or IonFlux HT methods
Protocol: The ability of pyridazine carboxamide derivatives exemplified above to inhibit the NaV1.8 channel was determined using one or more of the methods described below.
A HEK293 cell line stably expressing the human NaV1.8 (hNaV1.8) ion channel with β1/β2 subunits was constructed. The cell line is suitable for IC50 determination in fluorescence and electrophysiological based assays. It is also suitable to form mechanism of action pharmacology studies in electrophysiological assays. HEK293 NaV1.8 cells are grown as adherent monolayers in DMEM/high glucose media, 10% fetal bovine serum, Na pyruvate (2 mM), Hepes (10 mM) with selection agents G418 (400 mg/L) and puromycin (0.5 mg/L) at 37 degrees C., 10% CO2.
Activity of Representative NaV1.8 Inhibitors
The ability of representative pyridazine carboxamide derivatives exemplified above to inhibit the Nav1.8 channel was determined using one or more of the methods described immediately hereinabove.

T2 sequence (Q9Y5Y9 whole entry): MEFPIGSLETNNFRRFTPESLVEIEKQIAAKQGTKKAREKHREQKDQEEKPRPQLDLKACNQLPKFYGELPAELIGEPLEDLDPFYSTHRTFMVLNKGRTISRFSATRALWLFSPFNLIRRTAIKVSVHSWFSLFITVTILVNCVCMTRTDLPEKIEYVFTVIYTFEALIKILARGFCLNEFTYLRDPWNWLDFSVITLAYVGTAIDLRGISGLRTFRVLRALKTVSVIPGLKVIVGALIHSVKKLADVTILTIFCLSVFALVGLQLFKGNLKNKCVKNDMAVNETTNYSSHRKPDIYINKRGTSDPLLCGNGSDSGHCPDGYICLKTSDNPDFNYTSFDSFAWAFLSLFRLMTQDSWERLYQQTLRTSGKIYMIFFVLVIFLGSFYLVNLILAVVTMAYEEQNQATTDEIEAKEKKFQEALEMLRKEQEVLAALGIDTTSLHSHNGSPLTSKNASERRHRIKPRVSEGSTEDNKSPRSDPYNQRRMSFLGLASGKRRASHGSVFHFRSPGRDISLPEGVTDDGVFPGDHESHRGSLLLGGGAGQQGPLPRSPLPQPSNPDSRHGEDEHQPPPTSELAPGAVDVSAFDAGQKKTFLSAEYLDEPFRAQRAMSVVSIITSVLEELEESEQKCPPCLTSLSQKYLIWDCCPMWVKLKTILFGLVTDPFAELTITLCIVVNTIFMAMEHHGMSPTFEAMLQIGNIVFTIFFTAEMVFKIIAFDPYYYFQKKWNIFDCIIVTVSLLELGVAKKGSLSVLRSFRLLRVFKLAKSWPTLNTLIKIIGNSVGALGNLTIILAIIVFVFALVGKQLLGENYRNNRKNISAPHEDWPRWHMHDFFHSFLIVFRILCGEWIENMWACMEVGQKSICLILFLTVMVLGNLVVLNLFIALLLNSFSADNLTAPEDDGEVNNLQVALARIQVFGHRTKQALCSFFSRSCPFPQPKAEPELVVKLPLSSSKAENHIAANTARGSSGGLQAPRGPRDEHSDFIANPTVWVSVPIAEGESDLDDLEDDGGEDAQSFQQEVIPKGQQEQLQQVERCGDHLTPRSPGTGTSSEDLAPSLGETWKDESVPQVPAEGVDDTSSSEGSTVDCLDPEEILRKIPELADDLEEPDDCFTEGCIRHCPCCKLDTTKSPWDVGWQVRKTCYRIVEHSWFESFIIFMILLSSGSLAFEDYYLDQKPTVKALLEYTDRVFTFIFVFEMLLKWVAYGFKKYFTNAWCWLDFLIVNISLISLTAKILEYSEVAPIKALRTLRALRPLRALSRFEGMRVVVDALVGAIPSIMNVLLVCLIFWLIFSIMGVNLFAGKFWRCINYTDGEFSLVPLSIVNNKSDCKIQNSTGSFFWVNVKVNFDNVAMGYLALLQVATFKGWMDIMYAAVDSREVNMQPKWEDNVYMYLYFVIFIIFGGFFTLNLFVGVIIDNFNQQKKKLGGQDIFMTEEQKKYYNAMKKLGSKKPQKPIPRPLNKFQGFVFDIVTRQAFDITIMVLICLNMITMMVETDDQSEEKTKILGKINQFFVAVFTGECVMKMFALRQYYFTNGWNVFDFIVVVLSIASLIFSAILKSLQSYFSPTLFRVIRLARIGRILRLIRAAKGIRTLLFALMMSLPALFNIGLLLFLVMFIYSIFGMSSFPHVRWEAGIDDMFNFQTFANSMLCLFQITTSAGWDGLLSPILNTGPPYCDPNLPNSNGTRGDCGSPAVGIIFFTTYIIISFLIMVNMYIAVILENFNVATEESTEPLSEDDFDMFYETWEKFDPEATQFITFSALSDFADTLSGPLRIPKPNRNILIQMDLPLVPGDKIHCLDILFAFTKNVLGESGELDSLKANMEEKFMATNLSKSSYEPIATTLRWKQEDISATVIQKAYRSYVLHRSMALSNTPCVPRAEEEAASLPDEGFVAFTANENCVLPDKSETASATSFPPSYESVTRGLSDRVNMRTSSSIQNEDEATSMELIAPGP
T1 sequence (Q9Y5Y9 whole entry): as above

| SMILES | IC50 (human NaV1.8 [2]) [µM] | IC50 (human NaV1.8 [3]) [µM] | further results |
| --- | --- | --- | --- |
| COc1cc(F)ccc1Oc1nnc(C(F)(F)F)cc1C(=O)N[C@H]1CCCN(S(C)(=O)=O)C1 [Compound 7, (S)-3-(4-Fluoro-2-methoxyphenoxy)-N-(1-(methylsulfonyl)piperidin-3-yl)-6-(trifluoromethyl)pyridazine-4-carboxamide] | > 5 |  | IC50 ([1]; inactivated state block (P2 measurement), read-out: P2 IC50): 0.501 to 1 µM; IC50 ([1]; resting state block (P1 measurement), read-out: P1 IC50): 1 to 5 µM |
| COc1cc(F)ccc1Oc1nnc(C(F)(F)F)cc1C(=O)N[C@H]1CCCN(C(C)=O)C1 [Compound 8] | > 5 |  |  |
| COc1cc(F)ccc1Oc1nnc(C(F)(F)F)cc1C(=O)NC1CCCNC1=O (centres unmarked) [Compound 9] | > 5 |  |  |
| Cc1cc(F)ccc1Oc1nnc(C(F)(F)F)cc1C(=O)NC1CCCNC1=O (centres unmarked) [Compound 10] | > 5 |  |  |
| Cc1cc(F)ccc1Oc1nnc(C(F)(F)F)cc1C(=O)NC1CCC(=O)NC1 (centres unmarked) [Compound 11] | > 5 |  |  |
| COc1cc(F)ccc1Oc1nnc(C(F)(F)F)cc1C(=O)NC1CCC(=O)NC1 (centres unmarked) [Compound 12] | > 5 |  |  |
| COc1cc(F)ccc1Oc1nnc(C(F)(F)F)cc1C(=O)Nc1cccc(S(C)(=N)=O)c1 (centres unmarked) [Example 1, 3-(4-fluoro-2-methoxy-phenoxy)-N-[3-(methylsulfonimidoyl)phenyl]-6-(trifluoromethyl)pyridazine-4-carboxamide] |  | < 0.5 |  |
| Cc1cc(F)ccc1Oc1nnc(C(F)(F)F)cc1C(=O)Nc1cccc(S(C)(=N)=O)c1 (centres unmarked) [Example 2, 3-(4-fluoro-2-methyl-phenoxy)-N-[3-(methylsulfonimidoyl)phenyl]-6-(trifluoromethyl)pyridazine-4-carboxamide] |  | < 0.5 |  |
| CS(=O)(=O)c1cccc(NC(=O)c2cc(Cl)nnc2Oc2ccc(OC(F)(F)F)cc2)c1 [Example 3, 6-chloro-N-(3-methylsulfonylphenyl)-3-[4-(trifluoromethoxy)phenoxy]pyridazine-4-carboxamide] |  | < 0.5 |  |
